tested on: VEGF-induced HUVEC proliferation; experiment: VEGF-induced HUVEC proliferation reaction evaluation system (cell proliferation inhibitory action test, WST-8); type: cell-based, human; details: HUVEC 2×10^3 cells per well in 100 μL; 5 μL of 20 μg/mL test compound solution per well; 5 μL of 400 ng/mL VEGF solution; WST-8 three days after VEGF, absorbance at 450 nm; control 1.0% DMSO
Procedure: In order to find the usefulness of the compound of the present invention, a test for inhibitory effects of the compound of the present invention on cell proliferation was carried out using a VEGF-induced HUVEC proliferation reaction evaluation system (HUVEC: human umbilical vein endothelial cells), which is a method of evaluating antiangiogenic effects of drugs, and the antiangiogenic effects of the compound were evaluated.
As one of the widely used methods of evaluating antiangiogenic effects of drugs, a cell proliferation inhibitory action test using a VEGF-induced HUVEC proliferation reaction evaluation system has been reported in Cancer Res., 59, 99-106 (1999). According to the method described in the above-mentioned document, a cell proliferation inhibitory action test of the compounds of the present invention was carried out, and the cell proliferation inhibition rate was calculated. Then, the antiangiogenic effect of each of the compounds of the present invention was evaluated using the obtained rate as an index.
Each test compound was dissolved in dimethyl sulfoxide (hereinafter abbreviated as DMSO), and the obtained solution was diluted with a commercially available phosphate buffer solution (hereinafter abbreviated as PBS), whereby a 20 μg/mL test compound solution was prepared.
HUVEC was suspended in F12K medium containing 0.5% fetal bovine serum (hereinafter abbreviated as FBS), whereby a 2×10^4 cells/mL HUVEC suspension was prepared.
VEGF was dissolved in PBS containing 0.1% bovine serum albumin, and the obtained solution was diluted with F12K medium containing 0.5% FBS, whereby a 400 ng/mL VEGF solution was prepared.
1) The HUVEC suspension was inoculated in an amount of 100 μL into each well of a 96-well plate coated with type I collagen (2×10^3 cells per well).
2) One day after the inoculation, the test compound solution was added in an amount of 5 μL per well.
3) One hour after the addition of the test compound solution, the VEGF solution was added in an amount of 5 μL per well.
4) Three days after the addition of the VEGF solution, WST-8 assay reagent (Dojin Chemical Co., Ltd.) was added in an amount of 10 μL per well.
5) After 3 hours, the above-mentioned plate was attached to an absorptiometer (Multilabel Counter ARVO), and an absorbance at 450 nm of suspension in each well (hereinafter referred to as a test compound suspension) was measured.
6) A test was carried out in the same manner as in the above 1) to 5) except that 1.0% DMSO was used instead of the test compound solution. The result was used as a control.
Incubation was carried out under conditions of 37° C., 5% carbon dioxide and […] in an incubator throughout the above-mentioned test steps.
The cell proliferation inhibition rate (%), which was used as an index of an antiangiogenic effect, was calculated using the following calculation equation.
(Calculation Equation) Cell proliferation inhibition rate (%)=100−{(Absorbance of test compound suspension−A)/(absorbance of control−A)}×100 A: Absorbance of only cell suspension (cells+medium) (Test Results and Discussion)

Question: With Cc1cc(C)cc(NC(=O)c2cccnc2SCc2cc[n+]([O-])c3ccccc23)c1 [Compound 1-35, N-(3,5-Dimethylphenyl)-2-(1-oxoquinolin-4-ylmethylthio)pyridine-3-carboxamide] as the molecule, how does the “Cell proliferation inhibition rate (%)” value read?
Answer: 100%

same assay, conditions: Homo sapiens, 72 h; HUVEC 2×10^3 cells per well in 100 μL; 5 μL of 20 μg/mL test compound solution per well; 5 μL of 400 ng/mL VEGF solution; WST-8 three days after VEGF, absorbance at 450 nm; control 1.0% DMSO; read-out: Cell proliferation inhibition rate (%)

Question: O=C(Nc1ccc(Cl)cc1)c1cccnc1SCc1ccnc2ccccc12 [Compound 1-1, N-(4-Chlorophenyl)-2-(quinolin-4-ylmethylthio)pyridine-3-carboxamide] was tested. Which inhibition at 20 µg/mL (stock) did it give?
Answer: 100%

Question: Cc1cc(C)cc(NC(=O)c2cccnc2SCc2ccnc3ccccc23)c1 [Compound 1-3, N-(3,5-Dimethylphenyl)-2-(quinolin-4-ylmethylthio)pyridine-3-carboxamide] was tested. Which inhibition at 20 µg/mL (stock) did it give?
Answer: 100%

Question: With COc1ccc(CCNC(=O)c2ccccc2SCc2ccnc3ccccc23)cc1 [Compound 1-26, N-[2-(4-Methoxyphenyl)ethyl]-2-(quinolin-4-ylmethylthio)benzamide] as the molecule, how does the inhibition at 20 µg/mL (stock) read?
Answer: 97%

Question: With COc1cc2nccc(CSc3ncccc3C(=O)Nc3cc(C)cc(C)c3)c2cc1OC [Compound 1-30, 2-(6,7-Dimethoxyquinolin-4-ylmethylthio)-N-(3,5-dimethylphenyl)pyridine-3-carboxamide] as the molecule, how does the inhibition at 20 µg/mL (stock) read?
Answer: 70%

Question: For COc1cc2nccc(CSc3ncccc3C(=O)Nc3cccc(Cl)c3)c2cc1OC [Compound 1-31, N-(3-Chlorophenyl)-2-(6,7-dimethoxyquinolin-4-ylmethylthio)pyridine-3-carboxamide], which inhibition at 20 µg/mL (stock) is on record?
Answer: 88%

Question: With Cc1cccc(NC(=O)c2cccnc2SCc2ccnc3cc(Cl)c(Cl)cc23)c1 [Compound 1-33, 2-(6,7-Dichloroquinolin-4-ylmethylthio)-N-(3-methylphenyl)pyridine-3-carboxamide] as the molecule, how does the inhibition at 20 µg/mL (stock) read?
Answer: 100%

Question: How did the inhibition at 20 µg/mL (stock) turn out when Cc1cc(C)cc(NC(=O)c2cccnc2SCc2ccc3ncccc3c2)c1 [Compound 1-36, N-(3,5-Dimethylphenyl)-2-(quinolin-6-ylmethylthio)pyridine-3-carboxamide] was run?
Answer: 100%

Question: How did the inhibition at 20 µg/mL (stock) turn out when O=C(Nc1cccc(Cl)c1)c1cccnc1SCc1ccc2ncccc2c1 [Compound 1-38, N-(3-Chlorophenyl)-2-(quinolin-6-ylmethylthio)pyridine-3-carboxamide] was run?
Answer: 100%

Question: Cc1cc(C)cc(NC(=O)c2cccnc2SCc2cnc3ccccc3c2)c1 [Compound 1-39, N-(3,5-Dimethylphenyl)-2-(quinolin-3-ylmethylthio)pyridine-3-carboxamide] was tested. Which inhibition at 20 µg/mL (stock) did it give?
Answer: 100%

Question: For O=C(Nc1ccc(OC(F)(F)F)cc1)c1cccnc1SCc1ccnc2ccccc12 [Compound 2-1, 2-(Quinolin-4-ylmethylthio)-N-(4-trifluoromethoxyphenyl)pyridine-3-carboxamide], which inhibition at 20 µg/mL (stock) is on record?
Answer: 100%

Question: Cc1cc(C)cc(NC(=O)c2ccccc2SCc2ccnc3ccccc23)c1 [Compound 2-2, N-(3,5-Dimethylphenyl)-2-(quinolin-4-ylmethylthio)benzamide] was tested. Which inhibition at 20 µg/mL (stock) did it give?
Answer: 100%

Question: O=C(Nc1ccc(Cl)cc1)c1ccccc1SCc1ccnc2ccccc12 [Compound 2-3, N-(4-Chlorophenyl)-2-(quinolin-4-ylmethylthio)benzamide] was tested. Which inhibition at 20 µg/mL (stock) did it give?
Answer: 100%

Question: With Cc1cc(C)cc(NC(=O)c2sccc2SCc2ccnc3ccccc23)c1 [Compound 2-8, N-(3,5-Dimethylphenyl)-3-(quinolin-4-ylmethylthio)thiophene-2-carboxamide] as the molecule, how does the inhibition at 20 µg/mL (stock) read?
Answer: 100%
